From patent publication US11040035B2, “3-oxo-2,6-diphenyl-2,3-dihydropyridazine-4-carboxamides” (BAYER PHARMA AKTIENGESELLSCHAFT, priority 2016, dated 2021)

Legend:
AHR [1] = target: T1, AHR (Homo sapiens, UniProt P35869); experiment: In vitro assay 2: agonism in human cell line (transactivation assay)
T1 sequence (P35869 11-848): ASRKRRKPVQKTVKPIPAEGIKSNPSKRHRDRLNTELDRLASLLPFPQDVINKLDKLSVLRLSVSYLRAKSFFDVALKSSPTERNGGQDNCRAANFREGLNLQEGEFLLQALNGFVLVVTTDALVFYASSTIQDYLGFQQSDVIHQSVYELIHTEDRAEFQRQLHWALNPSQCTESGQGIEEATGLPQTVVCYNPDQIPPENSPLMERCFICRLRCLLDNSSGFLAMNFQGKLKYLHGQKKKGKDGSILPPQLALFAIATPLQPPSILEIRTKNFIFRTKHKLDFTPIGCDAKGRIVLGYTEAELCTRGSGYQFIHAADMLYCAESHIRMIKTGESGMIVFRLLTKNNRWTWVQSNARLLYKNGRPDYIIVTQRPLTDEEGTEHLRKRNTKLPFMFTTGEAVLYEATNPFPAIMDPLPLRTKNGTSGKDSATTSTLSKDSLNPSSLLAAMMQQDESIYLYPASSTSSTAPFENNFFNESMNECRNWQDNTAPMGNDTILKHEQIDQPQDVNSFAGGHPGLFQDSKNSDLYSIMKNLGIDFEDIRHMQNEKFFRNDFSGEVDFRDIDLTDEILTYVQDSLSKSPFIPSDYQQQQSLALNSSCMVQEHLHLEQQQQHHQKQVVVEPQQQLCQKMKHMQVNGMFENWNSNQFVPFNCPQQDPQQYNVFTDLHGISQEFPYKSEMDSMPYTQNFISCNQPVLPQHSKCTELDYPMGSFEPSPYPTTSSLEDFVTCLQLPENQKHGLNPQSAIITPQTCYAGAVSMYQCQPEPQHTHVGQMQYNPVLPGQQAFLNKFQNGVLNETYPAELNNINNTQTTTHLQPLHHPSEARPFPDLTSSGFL

AHR [2] = target: T1, AHR; experiment: In vitro assay 1: antagonism in human cell line (transactivation assay, kynurenic acid prestimulated); conditions: Assay 1: AHR-luc Hum Antagonism IC50 [M], 150 μM kynurenic acid, 20 hours, firefly luciferase
[3] = Assay 2: AHR-luc Hum Agonism IC50 [M], no kynurenic acid, 20 hours, firefly luciferase
[4] = read-out: Assay 2: AHR-luc Hum Agonism IC50, no kynurenic acid, 20 hours, firefly luciferase

Row | IC50 (AHR [1]; [3]) [M] | IC50 (AHR [2]) [M] | IC50 (AHR [1]; [4]) [M] | SMILES
1 | > 2e-05 | 4e-08 |  | Cc1ccc(-c2cc(C(=O)NCC(O)C(C)C)c(=O)n(-c3cc(F)cc(F)c3)n2)cc1 (stereo not shown) [Example 56, 2-(3,5-Difluorophenyl)-N-(2-hydroxy-3-methylbutyl)-6-(4-methylphenyl)-3-oxo-2,3-dihydropyridazine-4-carboxamide]
2 | > 2e-05 | 8.73e-07 |  | COCC(O)CNC(=O)c1cc(-c2ccc(Cl)c(Cl)c2)nn(-c2cccc(F)c2)c1=O (stereo not shown) [Example 303, 6-(3,4-Dichlorophenyl)-2-(3-fluorophenyl)-N-(2-hydroxy-3-methoxypropyl)-3-oxo-2,3-dihydropyridazine-4-carboxamide]
3 | > 2e-05 | 9.4e-07 |  | CC(C)OC[C@H](NC(=O)c1cc(-c2ccc(Cl)cc2)nn(-c2cccc(F)c2)c1=O)C(C)(C)O [Example 390, 6-(4-chlorophenyl)-2-(3-fluorophenyl)-N-[(2S)-3-hydroxy-1-isopropoxy-3-methylbutan-2-yl]-3-oxo-2,3-dihydropyridazine-4-carboxamide]
4 | > 2e-05 | 1.21e-07 |  | C[C@H](O)[C@H](C)NC(=O)c1cc(-c2ccc(Cl)c(Cl)c2)nn(-c2cccc(F)c2)c1=O (relative stereo) [Example 305, rel-6-(3,4-Dichlorophenyl)-2-(3-fluorophenyl)-N-[(2S,3S)-3-hydroxybutan-2-yl]-3-oxo-2,3-dihydropyridazine-4-carboxamide]
5 | > 2e-05 | 2.48e-07 |  | O=C(N[C@H]1COC[C@@H]1O)c1cc(-c2ccc(N3CCOCC3)cc2)nn(-c2cccc(F)c2)c1=O (relative stereo) [Example 378, rel-2-(3-fluorophenyl)-N-[(3R,4S)-4-hydroxytetrahydrofuran-3-yl]-6-[4-(morpholin-4-yl)phenyl]-3-oxo-2,3-dihydropyridazine-4-carboxamide]
6 | > 2e-05 | 2.77e-07 |  | C[C@@H](CO)NC(=O)c1cc(-c2ccc(Cl)c(F)c2)nn(-c2cccc(F)c2)c1=O [Example 286, 6-(4-Chloro-3-fluorophenyl)-2-(3-fluorophenyl)-N-[(2S)-1-hydroxypropan-2-yl]-3-oxo-2,3-dihydropyridazine-4-carboxamide]
7 | > 2e-05 | 6.6e-07 |  | O=C(NCC(O)C(F)(F)F)c1cc(-c2ccc(Cl)cc2)nn(-c2cc(Cl)cc(Cl)c2)c1=O (stereo not shown) [Example 311, 6-(4-Chlorophenyl)-2-(3,5-dichlorophenyl)-3-oxo-N-(3,3,3-trifluoro-2-hydroxypropyl)-2,3-dihydropyridazine-4-carboxamide]
8 |  | 5.72e-07 | > 2e-05 | N#Cc1cccc(-n2nc(-c3ccc(Cl)cc3)cc(C(=O)NCC(O)C(F)(F)F)c2=O)c1 (single isomer, unassigned) [Example 364, 6-(4-chlorophenyl)-2-(3-cyanophenyl)-3-oxo-N-(3,3,3-trifluoro-2-hydroxypropyl)-2,3-dihydropyridazine-4-carboxamide]
9 | > 2e-05 | 8.51e-08 |  | O=C(N[C@@H]1CCCC[C@@H]1O)c1cc(-c2ccc(Cl)c(F)c2)nn(-c2cccc(F)c2)c1=O (relative stereo) [Example 291, 6-(4-Chloro-3-fluorophenyl)-2-(3-fluorophenyl)-N-(cis-2-hydroxycyclohexyl)-3-oxo-2,3-dihydropyridazine-4-carboxamide]
10 | > 2e-05 | 7.32e-08 |  | O=C(NC(CO)Cc1cccnc1)c1cc(-c2ccc(Cl)cc2)nn(-c2cccc(F)c2)c1=O (racemic) [Example 338, 6-(4-chlorophenyl)-2-(3-fluorophenyl)-N-[(2RS)-1-hydroxy-3-(pyridin-3-yl)propan-2-yl]-3-oxo-2,3-dihydropyridazine-4-carboxamide]
11 | > 2e-05 | 1.36e-07 |  | C[C@H](O)[C@H](CO)NC(=O)c1cc(-c2ccc(Cl)cc2)nn(-c2cccc(F)c2)c1=O [Example 132, 6-(4-Chlorophenyl)-N-[(2S,3S)-1,3-dihydroxybutan-2-yl]-2-(3-fluorophenyl)-3-oxo-2,3-dihydropyridazine-4-carboxamide]
12 |  | 2.67e-08 | > 2e-05 | CC(NC(=O)c1cc(-c2ccc(Cl)cc2)nn(-c2cccc(F)c2)c1=O)C(O)CO (single isomer, unassigned) [Example 359, 6-(4-chlorophenyl)-N-(3,4-dihydroxybutan-2-yl)-2-(3-fluorophenyl)-3-oxo-2,3-dihydropyridazine-4-carboxamide]
13 | > 2e-05 | 1.81e-07 |  | COCC(O)CNC(=O)c1cc(-c2ccc(Cl)cc2)nn(-c2cccc(F)c2)c1=O (single isomer, unassigned) [Example 32, 6-(4-Chlorophenyl)-2-(3-fluorophenyl)-N-(2-hydroxy-3-methoxypropyl)-3-oxo-2,3-dihydropyridazine-4-carboxamide]
14 | > 2e-05 | 1.2e-07 |  | Cc1ccc(-c2cc(C(=O)NCC(O)C(C)C)c(=O)n(-c3cccc(F)c3)n2)cc1 (stereo not shown) [Example 10, 2-(3-Fluorophenyl)-N-(2-hydroxy-3-methylbutyl)-6-(4-methylphenyl)-3-oxo-2,3-dihydropyridazine-4-carboxamide]
15 | > 2e-05 | 1.99e-07 |  | O=C(NC[C@H](O)CO)c1cc(-c2ccc(Cl)cc2)nn(-c2cccc(F)c2)c1=O [Example 156, 6-(4-Chlorophenyl)-N-[(2S)-2,3-dihydroxypropyl]-2-(3-fluorophenyl)-3-oxo-2,3-dihydropyridazine-4-carboxamide]
16 | > 2e-05 | 2.26e-08 |  | O=C(NC(CCO)C(F)(F)F)c1cc(-c2ccc(Cl)cc2)nn(-c2cccc(F)c2)c1=O (racemic) [Example 340, 6-(4-chlorophenyl)-2-(3-fluorophenyl)-3-oxo-N-[(2RS)-1,1,1-trifluoro-4-hydroxybutan-2-yl]-2,3-dihydropyridazine-4-carboxamide]
17 |  | 1.02e-07 | > 2e-05 | CC(CO)CNC(=O)c1cc(-c2ccc(Cl)cc2)nn(-c2cccc(F)c2)c1=O (single isomer, unassigned; (-)) [Example 202, (−)-6-(4-Chlorophenyl)-2-(3-fluorophenyl)-N-(3-hydroxy-2-methylpropyl)-3-oxo-2,3-dihydropyridazine-4-carboxamide]
18 | > 2e-05 | 4.37e-08 |  | O=C(N[C@@H]1CCCC[C@@H]1O)c1cc(-c2ccc(OC(F)F)cc2)nn(-c2cccc(F)c2)c1=O (relative stereo) [Example 130, 6-[4-(Difluoromethoxy)phenyl]-2-(3-fluorophenyl)-N-(cis-2-hydroxycyclohexyl)-3-oxo-2,3-dihydropyridazine-4-carboxamide]
19 | > 2e-05 | 3.54e-09 |  | CC(O)C(NC(=O)c1cc(-c2ccc(C(F)(F)F)cc2)nn(-c2cccc(F)c2)c1=O)C(F)(F)F (single isomer, unassigned) [Example 349, 2-(3-fluorophenyl)-3-oxo-N-(1,1,1-trifluoro-3-hydroxybutan-2-yl)-6-[4-(trifluoromethyl)phenyl]-2,3-dihydropyridazine-4-carboxamide]
20 |  | 4.41e-07 | > 2e-05 | CC(C)C(O)CNC(=O)c1cc(-c2ccc(Cl)cc2)nn(-c2cccc(Cl)c2)c1=O (single isomer, unassigned) [Example 69, 2-(3-Chlorophenyl)-6-(4-chlorophenyl)-N-(2-hydroxy-3-methylbutyl)-3-oxo-2,3-dihydropyridazine-4-carboxamide]
21 | > 2e-05 | 6.5e-08 |  | C[C@H](NC(=O)c1cc(-c2ccc(OC(F)F)cc2)nn(-c2cccc(F)c2)c1=O)C(C)(C)O [Example 386, 6-[4-(difluoromethoxy)phenyl]-2-(3-fluorophenyl)-N-[(2S)-3-hydroxy-3-methylbutan-2-yl]-3-oxo-2,3-dihydropyridazine-4-carboxamide]
22 |  | 1.45e-07 | > 2e-05 | O=C(N[C@@H]1CCCC(F)(F)[C@H]1O)c1cc(-c2ccc(Cl)cc2)nn(-c2cccc(F)c2)c1=O (single isomer, unassigned) [Example 276, 6-(4-Chlorophenyl)-N-[(trans)-3,3-difluoro-2-hydroxycyclohexyl]-2-(3-fluorophenyl)-3-oxo-2,3-dihydropyridazine-4-carboxamide]
23 | > 2e-05 | 1.43e-07 |  | COC(=O)[C@H](CO)NC(=O)c1cc(-c2ccc(Cl)cc2)nn(-c2cccc(F)c2)c1=O [Example 153, Methyl N-{[6-(4-chlorophenyl)-2-(3-fluorophenyl)-3-oxo-2,3-dihydropyridazin-4-yl]carbonyl}-L-serinate]
